Source: patent US12172959B2, “Mono- or di-substituted indole derivatives as dengue viral replication inhibitors” (priority 2015, dated 2024)
Read-outs that look alike come from different tables or passages of the source.

What was measured:
in vitro [1] = settings: African green monkey
DENV-2 16681 strain = test: DENV-2 antiviral assay (eGFP fluorescence, Vero cells); format: cell-based, Dengue virus; settings: DENV-2 16681 eGFP, MOI 0.5, 3 days
Method: The antiviral activity of all the compounds of the invention was tested against the DENV-2 16681 strain which was labeled with enhanced green fluorescent protein (eGPF; Table 1). The culture medium consists of minimal essential medium supplemented with 2% of heat-inactivated fetal calf serum, 0.04% gentamycin (50 mg/mL) and 2 mM of L-glutamine. Vero cells, obtained from ECACC, were suspended in culture medium and 25 μL was added to 384-well plates (2500 cells/well), which already contain the antiviral compounds. Typically, these plates contain a 5-fold serial dilution of 9 dilution steps of the test compound at 200 times the final concentration in 100% DMSO (200 nL). […] Finally, each plate contains wells which are assigned as virus controls (containing cells and virus in the absence of compound), cell controls (containing cells in the absence of virus and compound) and medium controls (containing medium in the absence of cells, virus and compounds). To the wells assigned as medium control, 25 μL of culture medium was added instead of Vero cells. Once the cells were added to the plates, the plates were incubated for 30 minutes at room temperature to allow the cells to distribute evenly within the wells. Next, the plates were incubated in a fully humidified incubator (37° C., 5% CO2) until the next day. Then, DENV-2 strain 16681, labeled with eGFP, was added at a multiplicity of infection (MOI) of 0.5. Therefore, 15 μL of virus suspension was added to all the wells containing test compound and to the wells assigned as virus control. In parallel, 15 μL of culture medium was added to the medium and cell controls. Next, the plates were incubated for 3 days in a fully humidified incubator (37° C., 5% CO2). At the day of the read out, the eGFP fluorescence was measured using an automated fluorescence microscope at 488 nm (blue laser). Using an in-house LIMS system, inhibition dose response curves for each compound were calculated and the half maximal effective concentration (EC50) was determined. Therefore, the percent inhibition (I) for every test concentration is calculated using the following formula: I=100*(ST−SCC)/(SVC−SCC); ST, SCC and SVC are the amount of eGFP signal in the test compound, cell control and virus control wells, respectively. The EC50 represents the concentration of a compound at which the virus replication is inhibited with 50%, as measured by a 50% reduction of the eGFP fluorescent intensity compared to the virus control. The EC50 is calculated using linear interpolation.

DENV-3 strain H87 = test: Tetravalent RT-qPCR assay Protocol A, serotype 3; format: cell-based; settings: Dengue virus, DENV3, 72 h, RT-qPCR serotype 3 H87, Vero cells, day 3
Method: (§1) The antiviral activity of the compounds of the invention was tested against DENV-1 strain TC974#666 (NCPV; Table 6), DENV-2 strain 16681 (Table 7), DENV-3 strain H87 (NCPV; Table 8) and DENV-4 strains H241 (NCPV; Table 9A) and SG/06K2270DK1/2005 (Eden; Table 9B) in a RT-qPCR assay. Therefore, Vero cells were infected with either DENV-1, or -2, or -3, or -4 in the presence or absence of test compounds. At day 3 post-infection, the cells were lysed and cell lysates were used to prepare cDNA of both a viral target (the 3′UTR of DENV; Table 2) and a cellular reference gene (β-actin, Table 2). Subsequently, a duplex real time PCR was performed on a Lightcycler480 instrument. The generated Cp value is inversely proportional to the amount of RNA expression of these targets. Inhibition of DENV replication by test compound results in a shift of Cp's for the 3′UTR gene. On the other hand, if a test compound is toxic to the cells, a similar effect on β-actin expression will be observed. The comparative ΔΔCp method is used to calculate EC50, which is based on the relative gene expression of the target gene (3′UTR) normalized with the cellular housekeeping gene (β-actin).
(§2) The culture medium consisted of minimal essential medium supplemented with 2% of heat-inactivated fetal calf serum, 0.04% gentamycin (50 mg/mL) and 2 mM of L-glutamine. Vero cells, obtained from ECACC, were suspended in culture medium and 75 μL/well was added in 96-well plates (10000 cells/well), which already contain the antiviral compounds. […] In addition, each plate contains wells which are assigned as virus controls (containing cells and virus in the absence of compound) and cell controls (containing cells in the absence of virus and compound). Once the cells were added in the plates, the plates were incubated in a fully humidified incubator (37° C., 5% CO2) until the next day. Dengue viruses serotype-1, 2, 3 and 4 were diluted in order to obtain a Cp of ˜22-24 in the assay. Therefore, 25 μL of virus suspension was added to all the wells containing test compound and to the wells assigned as virus control. In parallel, 25 μL of culture medium was added to the cell controls. Next, the plates were incubated for 3 days in a fully humidified incubator (37° C., 5% CO2). After 3 days, the supernatant was removed from the wells and the cells were washed twice with ice-cold PBS (˜100 μL). The cell pellets within the 96-well plates were stored at −80° C. for at least 1 day. Next, RNA was extracted using the Cells-to-CT™ lysis kit, according to the manufacturer's guideline (Life Technologies). The cell lysates can be stored at −80° C. or immediately used in the reverse transcription step.
(§3) In preparation of the reverse transcription step, mix A (table 3A) was prepared and 7.57 μL/well was dispensed in a 96-well plate. After addition of 5 μL of the cell lysates, a five minute denaturation step at 75° C. was performed (table 3B). Afterwards, 7.43 μL of mix B was added (table 3C) and the reverse transcription step was initiated (table 3D) to generate cDNA.
(§4) Finally, a RT-qPCR mix was prepared, mix C (table 4A), and 22.02 μL/well was dispensed in 96-well LightCycler qPCR plates to which 3 μL of cDNA was added and the qPCR was performed according to the conditions in table 4B on a LightCycler 480.
(§5) Using the LightCycler software and an in-house LIMS system, dose response curves for each compound were calculated and the half maximal effective concentration (EC50) and the half maximal cytotoxic concentration (CC50) were determined.

[2] = test system: DENV-4 strain SG/06K2270DK1/2005 (Eden); test: Tetravalent RT-qPCR assay Protocol A, serotype 4 EDEN; format: cell-based; settings: Dengue virus, DENV4, Vero, 72 h
Method: as §1, §2, §3, §4, §5

in vitro [3] = format: cell-based; settings: African green monkey, CC50
Method: as §1, §2, §5

DENV-2 strain 16681 = test: Tetravalent RT-qPCR assay Protocol A, serotype 2; format: cell-based; settings: Dengue virus
Method: as §1, §2, §3, §4, §5

DENV-1 strain TC974#666 = test: Tetravalent RT-qPCR assay Protocol A, serotype 1; format: cell-based; settings: Dengue virus, DENV1, 72 h, RT-qPCR serotype 1 TC974#666, Vero cells, day 3
Method: as §1, §2, §3, §4, §5

DENV-4 strain H241 = test: Tetravalent RT-qPCR assay Protocol A, serotype 4 H241; format: cell-based; settings: Dengue virus, DENV4, 72 h; Protocol A, RT-qPCR serotype 4 H241, Vero cells, day 3; read-out: EC50
Method: as §1, §2, §3, §4, §5

Vero cells = settings: African green monkey
[4] = Dengue virus, DENV2, Vero, 72 h
[5] = DENV2, 72 h, Protocol A, RT-qPCR serotype 2 16681, Vero cells, day 3, read-out: EC50

COc1cc(NC(C(=O)c2c[nH]c3c(C)c(F)ccc23)c2ccc(Cl)cc2OC)cc(S(C)(=O)=O)c1 (racemic) [Compound 2, 2-(4-chloro-2-methoxyphenyl)-1-(6-fluoro-7-methyl-1H-indol-3-yl)-2-((3-methoxy-5-(methylsulfonyl)phenyl)amino)ethanone]
CC50 (in vitro [1]): 5000 nM
EC50 (DENV-2 16681 strain; [4]): 0.6 nM

COc1cc(NC(C(=O)c2c[nH]c3ccc(C(F)(F)F)cc23)c2ccc(Cl)cc2OC)cc(S(C)(=O)=O)c1 (racemic) [Compound 8, 2-(4-chloro-2-methoxyphenyl)-2-((3-methoxy-5-(methyl-sulfonyl)phenyl)amino)-1-(5-(trifluoromethyl)-1H-indol-3-yl)ethanone]
CC50 (in vitro [1]): 2900 nM
EC50 (DENV-2 16681 strain; [4]): 0.13 nM

COc1cc(NC(C(=O)c2c[nH]c3cc(OC)ccc23)c2ccc(Cl)cc2OC)cc(S(C)(=O)=O)c1 (single isomer, unassigned) [Compound 3A, 2-(4-chloro-2-methoxyphenyl)-1-(6-methoxy-1H-indol-3-yl)-2-((3-methoxy-5-(methylsulfonyl)phenyl)amino)ethanone]
EC50 (DENV-3 strain H87): 48 nM
EC50 [2]: 3 nM
CC50 (in vitro [1]): 7200 nM
CC50 at 3 days (in vitro [3]): 5500 nM
EC50 (DENV-2 strain 16681; [5]): 0.3 nM
EC50 (DENV-1 strain TC974#666): 4.2 nM
EC50 (DENV-2 16681 strain): 0.25 nM
EC50 (DENV-4 strain H241): 110 nM

COc1cc(NC(C(=O)c2c[nH]c3cc(OC)c(C)cc23)c2ccc(Cl)cc2OC)cc(S(C)(=O)=O)c1 (racemic) [Compound 4, 2-(4-chloro-2-methoxyphenyl)-2-((3-methoxy-5-(methyl-sulfonyl)phenyl)amino)-1-(6-methoxy-5-methyl-1H-indol-3-yl)ethanone]
CC50 (in vitro [1]): 5900 nM
EC50 (DENV-2 16681 strain; [4]): 0.39 nM

COc1cc(NC(C(=O)c2c[nH]c3cc(OC)ccc23)c2ccc(Cl)cc2OC)cc(S(C)(=O)=O)c1 (racemic) [Compound 3, 2-(4-chloro-2-methoxyphenyl)-1-(6-methoxy-1H-indol-3-yl)-2-((3-methoxy-5-(methylsulfonyl)phenyl)amino)ethanone]
CC50 (in vitro [1]): > 11000 nM
EC50 (DENV-2 16681 strain; [4]): 0.58 nM

COc1cc(NC(C(=O)c2c[nH]c3cc(F)c(C)cc23)c2ccc(Cl)cc2OC)cc(S(C)(=O)=O)c1 (racemic) [Compound 7, 2-(4-chloro-2-methoxyphenyl)-1-(6-fluoro-5-methyl-1H-indol-3-yl)-2-((3-methoxy-5-(methylsulfonyl)phenyl)amino)ethanone]
CC50 (in vitro [1]): 3200 nM
EC50 (DENV-2 16681 strain; [4]): 0.47 nM

COc1cc(NC(C(=O)c2c[nH]c3ccc(OC(F)(F)F)cc23)c2ccc(Cl)cc2OC)cc(S(C)(=O)=O)c1 (single isomer, unassigned) [Compound 9A, 2-(4-chloro-2-methoxyphenyl)-2-((3-methoxy-5-(methyl-sulfonyl)phenyl)amino)-1-(5-(trifluoromethoxy)-1H-indol-3-yl)ethanone]
EC50 (DENV-3 strain H87): 2.1 nM
CC50 at 3 days (in vitro [3]): 1700 nM
EC50 (DENV-2 strain 16681; [5]): 0.057 nM
EC50 (DENV-1 strain TC974#666): 0.11 nM
EC50 (DENV-2 16681 strain): 0.067 nM
EC50 (DENV-4 strain H241): 12 nM
CC50 (Vero cells): 2900 nM

COc1cc(NC(C(=O)c2c[nH]c3cc(OC)c(F)cc23)c2ccc(Cl)cc2OC)cc(S(C)(=O)=O)c1 (racemic) [Compound 5, 2-(4-chloro-2-methoxyphenyl)-1-(5-fluoro-6-methoxy-1H-indol-3-yl)-2-((3-methoxy-5-(methylsulfonyl)phenyl)amino)ethanone]
CC50 (in vitro [1]): 5500 nM
EC50 (DENV-2 16681 strain; [4]): 0.62 nM

COc1cc(NC(C(=O)c2c[nH]c3cc(F)c(C)cc23)c2ccc(Cl)cc2OC)cc(S(C)(=O)=O)c1 (single isomer, unassigned) [Compound 7B, 2-(4-chloro-2-methoxyphenyl)-1-(6-fluoro-5-methyl-1H-indol-3-yl)-2-((3-methoxy-5-(methylsulfonyl)phenyl)amino)ethanone]
EC50 (DENV-3 strain H87): 7.8 nM
CC50 at 3 days (in vitro [3]): 2200 nM
EC50 (DENV-2 strain 16681; [5]): 0.17 nM
EC50 (DENV-1 strain TC974#666): 0.4 nM
EC50 (DENV-2 16681 strain): 0.2 nM
EC50 (DENV-4 strain H241): 44 nM
CC50 (Vero cells): 3200 nM

COc1cc(NC(C(=O)c2c[nH]c3ccc(OC(F)(F)F)cc23)c2ccc(Cl)cc2OC)cc(S(C)(=O)=O)c1 (racemic) [Compound 9, 2-(4-chloro-2-methoxyphenyl)-2-((3-methoxy-5-(methyl-sulfonyl)phenyl)amino)-1-(5-(trifluoromethoxy)-1H-indol-3-yl)ethanone]
CC50 (in vitro [1]): 3100 nM
EC50 (DENV-2 16681 strain; [4]): 0.074 nM

COc1cc(NC(C(=O)c2c[nH]c3ccc(C(F)(F)F)cc23)c2ccc(Cl)cc2OC)cc(S(C)(=O)=O)c1 (single isomer, unassigned) [Compound 8B, 2-(4-chloro-2-methoxyphenyl)-2-((3-methoxy-5-(methyl-sulfonyl)phenyl)amino)-1-(5-(trifluoromethyl)-1H-indol-3-yl)ethanone]
EC50 (DENV-3 strain H87): 5.8 nM
CC50 at 3 days (in vitro [3]): 1900 nM
EC50 (DENV-2 strain 16681; DENV2, Vero, 72 h): 0.31 nM
EC50 (DENV-1 strain TC974#666): 0.45 nM
EC50 (DENV-2 16681 strain): 0.069 nM
EC50 (DENV-4 strain H241): 15 nM
CC50 (Vero cells): 3400 nM
